The results in this text go back to patent US12528792B2, “Sulfonamide compounds and the use thereof in the treatment of cancer” (TROBIO THERAPEUTICS PTY LTD, priority 2019, dated 2026).

The test system of assay [1] is PC3 (prostate) cells. As to the kind of experiment: Anti-proliferative activity, Cell-Titre luminescent viability assay. The class given is cell-based. Conditions: 72 h exposure, Cell-Titre luminescent reagent. In outline: (§1)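 Cells attached 24 h at 37° C., 5% CO2, then treated 72 h with compound at 0.3–100 μM or 0.1–30 μM. Viability read by Cell-Titre luminescence after 30 min reagent exposure, normalized to vehicle; EC50 from variable-slope sigmoidal nonlinear regression.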

Assay [2] relates to MIA PaCa-2 (pancreatic) cells. The assay is described as above. In kind it is cell-based. Conditions: Homo sapiens, 72 h exposure, Cell-Titre luminescent reagent. The procedure, abridged: as §1
Assay [3] deals with A2780 (ovarian) cells. The description is as above. The class given is cell-based. Conditions: Homo sapiens, 72 h exposure, Cell-Titre luminescent reagent. In outline: as §1
Assay [4] relates to A549 (NSCLC) cells. Described as above. The class given is cell-based. Conditions: Homo sapiens, 72 h exposure, Cell-Titre luminescent reagent. In outline: as §1
Assay [5] deals with Caco-2 (colorectal) cells. Described as above. Particulars: Homo sapiens, 72 h exposure, Cell-Titre luminescent reagent. In kind it is cell-based. The procedure, abridged:
as §1

Assay [6] has as its system A2780 ovarian cancer cells. As to the kind of experiment: In vitro growth inhibition assay, Alamar Blue, single agent IC50. Conditions: Homo sapiens, 72 h drug exposure, Alamar Blue, 384-well (26*: 96-well plate format), read-out: Single-agent IC50. The class given is cell-based. Here is the method:
In vitro growth inhibition assays were performed as technical triplicate in two independent experiments and cell viability was assessed by Alamar Blue assay readout. Briefly, cells in logarithmic phase growth were seeded in 384-well plates in a 50 μL/well assay volume. Cells were seeded at 1,200 cells/well using a Multidrop 384 (Thermo Scientific) and allowed to adhere at 37° C. with 5% CO2, in a humidified atmosphere (LiCONIC incubator). After 24 hours incubation, test compounds, positive control (20 μM Thonzonium bromide, 100% kill) and vehicle only (0.4% DMSO) were added into wells of each assay plate using a Tecan HP D300 Digital Dispenser in technical triplicate under minimum light. Following 72 hours drug exposure, metabolic activity was detected by addition of 10% (v/v) Alamar Blue reagent to each assay well using a Multidrop Cambi (Thermo Scientific) and determined by measurement of fluorescence intensity (excitation 555 nm, emission 585 nm) using an EnSpire (Perkin Elmer) plate reader. Readings were performed at 0 hour (background) and after 6 hours alamar blue incubation at 37° C.
Each drug was tested as a 10-point concentration series with two-fold serial dilutions of each drug. The concentration series for compounds 6 and 8 was 100, 50, 25, 12.5, 6.25, 3.125, 1.563, 0.781, 0.391 and 0.195 μM and for compounds 24, 43 and 48 was 50, 25, 12.5, 6.25, 3.125, 1.563, 0.781, 0.391, 0.195 and 0.098 μM for the two independent experiments. The concentration series for vinorelbine and paclitaxel was 100, 50, 25, 12.5, 6.25, 3.125, 1.5625, 0.781, 0.391 and 0.195 nM. Thonzonium bromide (20 μM) and 0.4% DMSO were used as positive and vehicle controls, respectively. The IC50 value was calculated by derivation of the best-fit line using a sigmoidal dose response model (Activity Base Software Suite, IDES).
Activity Base software suite (IDES, version 8.3.0.175) was used for data analysis. Cell survival is expressed as a percentage of viable cells. IC50 concentrations were calculated by derivation of the best-fit line using a sigmoidal dose response model with technical triplicate data points.

For assay [7], the target named is F-actin/Tpm3.1 (Homo sapiens, UniProt P06753). Put plainly: Actin depolymerisation assay. The class given is biochemical. Conditions: 50 μmol/L test compound, FIG. 1. As for the experimental part: A 12 μmol/L solution of labelled F-actin was prepared by polymerising the monomeric actin (35% pyrene labelled Rabbit Muscle (Cytoskeleton Inc)) into filaments in the presence of buffer T (100 mmol/L NaCl; 10 mmol/L Tris HCl PH 7.5; 2 mmol/L MgCl2; 1 mmol/L EGTA; 0.5 mmol/L DTT) with added ATP (0.2 mmol/L), for 1 hour in the dark at room temperature. Tpm3.1 (10 μmol/L) was reduced in buffer T containing 1 mmol/L DTT at 70° C. for 6 minutes and centrifuged at 60,000 rpm for 30 minutes to remove nonreduced dimers. […] Duplicate samples were diluted 12-fold using an F-actin polymerisation buffer (100 mmol/L NaCl; 10 mmol/L Tris HCl PH 7; 2 mmol/L MgCl2; 1 mmol/L EGTA; 0.2 mmol/L ATP; 1 mmol/L DTT) and the depolymerisation rates of F-actin alone, F-actin/Tpm3.1, and the F-actin/Tpm3.1/test compound filament complex were measured using a Costar 3915 fluorescence plate reader (407 nm) at 36-second intervals for 160 minutes at room temperature. Data were normalized to the initial fluorescence value and polymerisation curves of duplicate samples were fitted to a two-phase exponential decay model using OriginPro 9.1 (OriginLab) (FIG. 1A). Percent polymerisation was determined at t160 as a function of to (100%) (FIG. 1B, p<0.0001).

With `O=C(Nc1ccc(C(F)(F)F)cc1)c1ccn(S(=O)(=O)c2ccc3[nH]ccc3c2)c1` [Compound 26, 1-((1H-indol-5-yl)sulfonyl)-N-(4-(trifluoromethyl)phenyl)-1H-pyrrole-3-carboxamide], the half-maximal inhibitory concentration (IC50) came out at 7.7 µM in assay [1]; 10.1 µM in assay [2]; 4.9 µM in assay [3]; 6.8 µM in assay [4]; 6.1 µM in assay [5]; 12.5 µM in assay [6]. Besides, the “Inhibition of Tpm3.1 protection of actin filaments from depolymerisation” value in assay [7] is recorded as “inhibit the ability of Tpm3.1 to protect actin filaments from depolymerisation”.
